Results: US6794408B2, “Drechsleranol derivatives, processes for their preparation and their use” (Aventis Pharma Deutschland GmbH, priority 2002, dated 2004)

Legend:
[1] = biological target: JNK-3 (Homo sapiens, UniProt P53779); test: JNK-3 assay (HTRF, JNK-3/GST-ATF2); format: biochemical; settings: ATP 15 μM, 37° C., 20 minutes
Description: The assay is carried out on a CyBio pipetter system in a 384-hole plate format. The assay contains 10 μL of sample (extract or pure substance, for example a compound of formula (II) or of formula (III)) in 3% DMSO, 10 μL of an enzyme/substrate mixture (JNK-3/GST-ATF2) and 10 μL of ATP in a final volume of 30 μL. After incubation at 37° C. for 20 minutes, 50 μL of the HTRF antibody mixture (XL665-anti-GST/(Eu)cryptate anti-P-ATF2) are added. After 120 minutes at room temperature, the signal emission of the energy transfer and of europium at 665 and 615 nm is measured after the samples have been stimulated at 340 nm in a Victor^2 (WALLAC).
Buffer I for the Dilution of JNK3, GST-ATF2, ATP:
Buffer II for the Dilution of the HTRF Reagents:
Each plate contains 16 positive controls (maximum energy transfer, buffer I instead of samples), 8 blank controls (minimum energy transfer, buffer II instead of ATP) and 8 holes which contain EDTA 200 μM.
The results are calculated as follows:
Firstly, the signal ratio=(intensity (665 nm)/intensity (615 nm)) is determined. A blank correction is then made using the following formula:
delta F(%)=[(ratio (sample)−ratio(minimum))/(ratio (minimum))]×100
The activity of the samples is then calculated in the following manner:
Inhibition (%)=100×[1−(delta F(sample)/delta F(maximum))]

[2] = biological target: hCK1ε (Homo sapiens, UniProt P49674); test: hCK1ε assay (33P-ATP, casein-coated plates); format: biochemical; settings: 0.4 μM cold ATP, 37° C., one hour
Description: The assay is carried out in a Jobi-Well (CyBio) and Biomek 2000 pipetter system in the 384-hole plate format. The 384-hole plates are coated with 50 μL per well of a casein solution of the concentration 100 μg/mL in coating buffer (corresponds to 5 μg of casein per well, casein Sigma) and stored overnight at 4° C. Washing four times with 90 μL of wash solution 1 (50 mM HEPES pH 7.4 and 150 mM NaCl) is then carried out. The reaction is carried out in a final volume of 50 μL. During the course of this, 10 μL of dilute natural substance extract in each case, for example a compound of formula (II) or a compound of formula (III), 20 μL of hCK1ε enzyme solution (corresponds to 29 ng of […] per well) and 20 μL of ATP solution (final concentration: 0.4 μCi of ^33P-γ-ATP radiolabeled (“hot”) and 0.4 μM of cold ATP per well) are pipetted onto the coated plates. The plates are then incubated at 37° C. for one hour. The plates are then washed four times with 75 μL of wash solution 2 (phosphoric acid, 3%) and measured for 30 seconds in a MicroBeta Trilux counter (WALLAC).
hCK1ε Enzyme Solution: 1.45 μg of Recombinant hCK1ε per mL of Kinase Buffer
ATP Solution: 20 μCi/mL of ^33P-γ-ATP and 1 μM of Cold ATP […]
The inhibition of a sample can be calculated according to the following formula: […]

Chain of JNK-3 (P53779 whole entry): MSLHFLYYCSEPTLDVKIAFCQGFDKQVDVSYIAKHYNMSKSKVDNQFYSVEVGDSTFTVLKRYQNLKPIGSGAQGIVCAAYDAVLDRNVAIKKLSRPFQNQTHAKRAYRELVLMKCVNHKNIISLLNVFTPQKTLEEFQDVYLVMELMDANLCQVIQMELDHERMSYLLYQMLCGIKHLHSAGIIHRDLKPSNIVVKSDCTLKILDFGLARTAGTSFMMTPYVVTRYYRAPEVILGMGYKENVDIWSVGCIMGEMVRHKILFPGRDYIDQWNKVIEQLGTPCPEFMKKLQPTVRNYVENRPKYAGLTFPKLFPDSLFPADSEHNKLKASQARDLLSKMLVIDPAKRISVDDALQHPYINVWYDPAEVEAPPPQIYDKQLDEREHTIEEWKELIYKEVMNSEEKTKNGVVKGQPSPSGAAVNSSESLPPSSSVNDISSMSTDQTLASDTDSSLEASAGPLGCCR
Chain of hCK1ε (P49674 whole entry): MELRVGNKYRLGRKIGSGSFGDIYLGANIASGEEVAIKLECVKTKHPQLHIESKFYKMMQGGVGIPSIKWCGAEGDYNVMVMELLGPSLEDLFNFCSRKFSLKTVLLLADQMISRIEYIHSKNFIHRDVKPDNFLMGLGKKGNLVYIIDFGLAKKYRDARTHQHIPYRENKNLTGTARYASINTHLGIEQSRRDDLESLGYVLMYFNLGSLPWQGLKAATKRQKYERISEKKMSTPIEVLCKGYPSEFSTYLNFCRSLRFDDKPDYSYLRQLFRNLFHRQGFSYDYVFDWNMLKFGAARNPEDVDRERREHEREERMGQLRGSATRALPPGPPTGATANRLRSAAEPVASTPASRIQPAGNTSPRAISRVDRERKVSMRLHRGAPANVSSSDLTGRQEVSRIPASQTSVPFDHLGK

Row | IC50 [1] [µM] | IC50 [2] [µM] | SMILES
1 | 2.8 | – | Oc1cccc2ccc3c4ccc5cccc(O)c5c4oc3c12 [Compound III]
2 | 1.1 | 2.9 | OCC(O)C(O)C(O)C(O)C(O)c1cc2c3ccc4cccc(O)c4c3oc2c2c(O)cccc12 (stereo not drawn) [Compound II]
